We go through 24 compounds from patent US20160229839A1, “Factor XIa Inhibitors” (Merck Sharp & Dohme Corp., priority 2013, published 2016).

Bounds are passed on as bounds.

The experiment addresses T1, purified human Factor XIa (Homo sapiens, UniProt P03951).
T1 construct: purified human Factor XIa; purchased Sekisui Diagnostics
Description: Factor XIa Assay (fluorogenic substrate Z-Gly-Pro-Arg-AFC). It is filed as biochemical. Particulars: purified human Factor XIa 40 pM; Z-Gly-Pro-Arg-AFC 100 μM; 50 mM HEPES pH 7.4; read-out: hFXIa Ki (nM), Factor XIa inhibition. As for the experimental part: The effectiveness of compound of the present invention as inhibitors of Coagulation Factor XIa can be determined using a relevant purified serine protease, and an appropriate synthetic substrate. The rate of hydrolysis of the chromogenic or fluorogenic substrate by the relevant serine protease was measured both in the absence and presence of compounds of the present invention. Assays were conducted at room temperature or at 37° C. […] A decrease in the rate of fluorescence change in the presence of inhibitor is indicative of enzyme inhibition. Such methods are known to one skilled in the art. The results of this assay are expressed as the inhibitory constant, Ki.
Factor XIa determinations were made in 50 mM HEPES buffer at pH 7.4 containing 150 mM NaCl, 5 mM CaCl2, and 0.1% PEG 8000 (polyethylene glycol; J T Baker or Fisher Scientific). Determinations were made using purified human Factor XIa at a final concentration of 40 pM (Sekisui Diagnostics) and he synthetic substrate, Z-Gly-Pro-Arg-AFC, TFA salt (Sigma #C0980) at a concentration of 100 μM.
Activity assays were performed by diluting a stock solution of substrate at least tenfold to a final concentration ≦0.1 Km into a solution containing enzyme or enzyme equilibrated with inhibitor. Times required to achieve equilibration between enzyme and inhibitor were determined in control experiments. Initial velocities of product formation in the absence (Vo) or presence of inhibitor (Vi) were measured. Assuming competitive inhibition, and that unity is negligible compared Km/[S], [I]/e, and [I]/e (where [S], [I], and e respectively represent the total concentrations, of substrate, inhibitor and enzyme), the equilibrium constant (Ki) for dissociation of the inhibitor from the enzyme can be obtained from the dependence of Vo/Vi on [I] shown in the following equation.

T1 sequence (P03951 388-625 limits assumed): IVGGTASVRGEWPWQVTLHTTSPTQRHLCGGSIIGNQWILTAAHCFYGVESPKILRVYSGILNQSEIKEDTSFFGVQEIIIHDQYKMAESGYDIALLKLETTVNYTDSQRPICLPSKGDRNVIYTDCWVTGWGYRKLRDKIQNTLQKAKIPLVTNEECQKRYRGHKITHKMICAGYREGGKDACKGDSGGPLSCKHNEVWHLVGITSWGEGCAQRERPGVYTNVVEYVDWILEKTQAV
T1 sequence (P03951 19-387 partner limits assumed): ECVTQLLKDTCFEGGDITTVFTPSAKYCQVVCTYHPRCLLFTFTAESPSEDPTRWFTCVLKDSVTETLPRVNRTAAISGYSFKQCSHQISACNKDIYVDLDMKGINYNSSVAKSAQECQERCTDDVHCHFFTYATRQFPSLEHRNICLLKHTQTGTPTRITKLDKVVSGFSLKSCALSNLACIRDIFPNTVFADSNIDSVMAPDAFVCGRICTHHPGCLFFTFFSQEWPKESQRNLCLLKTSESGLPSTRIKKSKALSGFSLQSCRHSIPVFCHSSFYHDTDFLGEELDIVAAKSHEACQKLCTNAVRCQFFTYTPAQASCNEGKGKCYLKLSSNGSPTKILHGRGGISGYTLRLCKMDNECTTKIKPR

Take `O=C(/C=C/c1cc(Cl)ccc1-n1cnnn1)N1CCCC(c2ccccc2)C1c1nc(-c2ccc(C(F)(F)F)cc2)c[nH]1` (stereo not drawn) [Example 1-30, (E)-3-(5-chloro-2-(1H-tetrazol-1-yl)phenyl)-1-(3-phenyl-2-(4-(4-(trifluoromethyl)phenyl)-1H-imidazol-2-yl)piperidin-1-yl)prop-2-en-1-one]: the Ki (commonly a measure of affinity in units of concentration, obtained from inhibition or displacement) is greater than 10000 nM.

For `Cc1cc(C2CCCN(C(=O)/C=C/c3cc(Cl)ccc3-n3cnnn3)C2C(=O)Nc2ccc(C(=O)O)cc2)ccc1F` (stereo not drawn) [Example 1-37, (E)-4-(1-(3-(5-chloro-2-(1H-tetrazol-1-yl)phenyl)acryloyl)-3-(4-fluoro-3-methylphenyl)piperidine-2-carboxamido)benzoic acid], the Ki turned out to be 51.5 nM.

Take `NCC1CCC(C(=O)N2CCCC(c3ccccc3)C2C(=O)Nc2ccc(C(=O)O)cc2)CC1` (stereo not drawn) [Example 1-49, 4-(1-(4-(aminomethyl)cyclohexanecarbonyl)-3-phenylpiperidine-2-carboxamido)benzoic acid]: the Ki was determined as 916 nM.

For the compound `CC(C)(C)OC(=O)c1ccc(NC(=O)C2C(c3ccccc3)CCCN2C(=O)/C=C/c2cc(Cl)ccc2-n2cnnn2)cc1` (racemic) [Example 1-1, (E)-tert-butyl 4-(1-(3-(5-chloro-2-(1H-tetrazol-1-yl)phenyl)acryloyl)-3-phenylpiperidine-2-carboxamido)benzoate], the Ki is greater than 10000 nM.

For `O=C(/C=C/c1cc(Cl)ccc1-n1cnnn1)N1CCCC(c2ccccc2)C1c1nc(-c2cccnc2)c[nH]1` [Example 1-11, (E)-3-(5-chloro-2-(1H-tetrazol-1-yl)phenyl)-1-(3-phenyl-2-(4-(pyridin-3-yl)-1H-imidazol-2-yl)piperidin-1-yl)prop-2-en-1-one (2R,3R)], the Ki came to 8650 nM.

As to `O=C1Cc2cc(-c3cnc([C@@H]4[C@H](c5ccccc5)CCCN4C(=O)/C=C/c4cc(Cl)ccc4-n4cnnn4)[nH]3)ccc2N1` [Example 1-63, 5-(2-((2S,3S)-1-((E)-3-(5-chloro-2-(1H-tetrazol-1-yl)phenyl)acryloyl)-3-phenylpiperidin-2-yl)-1H-imidazol-5-yl)indolin-2-one], the Ki was 207 nM.

Consider `O=C(/C=C/c1cc(Cl)ccc1-n1cnnn1)N1CCC[C@@H](c2ccccc2)[C@H]1c1nc2cc(F)ccc2[nH]1` [Example 1-68, (E)-3-(5-chloro-2-(1H-tetrazol-1-yl)phenyl)-1-((2S,3S)-2-(5-fluoro-1H-benzo[d]imidazol-2-yl)-3-phenylpiperidin-1-yl)prop-2-en-1-one], for which the Ki came to 428 nM.

In the case of `CC(C)(C)OC(=O)C1CCC(NC(=O)C2C(C3CCCCC3)CCCN2C(=O)/C=C/c2cc(Cl)ccc2-n2cnnn2)CC1` (stereo not drawn) [Example 1-4, (E)-tert-butyl 4-(1-(3-(5-chloro-2-(1H-tetrazol-1-yl)phenyl)acryloyl)-3-cyclohexylpiperidine-2-carboxamido)cyclohexanecarboxylate], the Ki was greater than 10000 nM.

For `N#Cc1ccc(-c2c[nH]c(C3C(c4ccccc4)CCCN3C(=O)CCc3cc(Cl)ccc3-n3cnnn3)n2)cc1` (stereo not drawn) [Example 1-24, 4-(2-(1-(3-(5-chloro-2-(1H-tetrazol-1-yl)phenyl)propanoyl)-3-phenylpiperidin-2-yl)-1H-imidazol-4-yl)benzonitrile], the Ki amounted to 8510 nM.

On to `COC(=O)Nc1ccc(-c2c[nH]c(C3C(c4ccccc4)CCCN3C(=O)/C=C/c3cc(Cl)ccc3-n3cnnn3)n2)cc1` (stereo not drawn) [Example 1-46, (E)-methyl (4-(2-(1-(3-(5-chloro-2-(1H-tetrazol-1-yl)phenyl)acryloyl)-3-phenylpiperidin-2-yl)-1H-imidazol-4-yl)phenyl)carbamate], for which the Ki came to 65.5 nM.

Consider `O=C(O)c1ccc(NC(=O)[C@@H]2[C@H](c3ccccc3)CCCN2C(=O)/C=C/c2cc(Cl)ccc2-n2cnnn2)cc1` (single isomer, unassigned) [Example 1-57], for which the Ki amounted to 7.6 nM.

On to `O=C(/C=C/c1cc(Cl)ccc1-n1cnnn1)N1CCCC(c2ccccc2)C1c1nc(-c2cccnc2)c[nH]1` [Example 1-12, (E)-3-(5-chloro-2-(1H-tetrazol-1-yl)phenyl)-1-(3-phenyl-2-(4-(pyridin-3-yl)-1H-imidazol-2-yl)piperidin-1-yl)prop-2-en-1-one (2S,3S)], for which the Ki came out at 570 nM.

As to `O=C(/C=C/c1cc(Cl)ccc1-n1cnnn1)N1CCCC(c2ccccc2)C1c1nc(-c2ccc(Cl)cc2)c[nH]1` (stereo not drawn) [Example 1-21, (E)-3-(5-chloro-2-(1H-tetrazol-1-yl)phenyl)-1-(2-(4-(4-chlorophenyl)-1H-imidazol-2-yl)-3-phenylpiperidin-1-yl)prop-2-en-1-one], the inhibitory constant (Ki) is greater than 10000 nM.

On to `NC1CCc2cc(C(=O)N3CCCC(c4ccccc4)C3C(=O)Nc3ccc(C(=O)O)cc3)ccc21` (racemic) [Example 1-14, 4-(1-(1-amino-2,3-dihydro-1H-indene-5-carbonyl)-3-phenylpiperidine-2-carboxamido)benzoic acid], for which the Ki is 572 nM.

Take `O=C(O)c1ccc(NC(=O)C2C(c3ccc(C(F)(F)F)cc3)CCCN2C(=O)/C=C/c2cc(Cl)ccc2-n2cnnn2)cc1` (stereo not drawn) [Example 1-32, (E)-4-(1-(3-(5-chloro-2-(1H-tetrazol-1-yl)phenyl)acryloyl)-3-(4-(trifluoromethyl)phenyl)piperidine-2-carboxamido)benzoic acid]: the Ki was 218 nM.

Turning to `N#Cc1cccc(-c2c[nH]c(C3C(c4ccccc4)CCCN3C(=O)/C=C/c3cc(Cl)ccc3-n3cnnn3)n2)c1` (stereo not drawn) [Example 1-27, (E)-3-(2-(1-(3-(5-chloro-2-(1H-tetrazol-1-yl)phenyl)acryloyl)-3-phenylpiperidin-2-yl)-1H-imidazol-4-yl)benzonitrile], the Ki is greater than 10000 nM.

Consider `CC(C)(C)OC(=O)c1ccc(NC(=O)C2C(C3CCCCC3)CCCN2C(=O)/C=C/c2cc(Cl)ccc2-n2cnnn2)cc1` (stereo not drawn) [Example 1-3, (E)-tert-butyl 4-(1-(3-(5-chloro-2-(1H-tetrazol-1-yl)phenyl)acryloyl)-3-cyclohexylpiperidine-2-carboxamido)benzoate], for which the Ki is greater than 10000 nM.

With `COc1cccc(-c2c[nH]c(C3C(c4ccccc4)CCCN3C(=O)/C=C/c3cc(Cl)ccc3-n3cnnn3)n2)c1` (stereo not drawn) [Example 1-28, (E)-3-(5-chloro-2-(1H-tetrazol-1-yl)phenyl)-1-(2-(4-(3-methoxyphenyl)-1H-imidazol-2-yl)-3-phenylpiperidin-1-yl)prop-2-en-1-one], the Ki was greater than 10000 nM.

Take `O=C(/C=C/c1cc(Cl)ccc1-n1cnnn1)N1CCCC(c2ccccc2)C1c1nc(-c2ccccn2)c[nH]1` (stereo not drawn) [Example 1-41, (E)-3-(5-chloro-2-(1H-tetrazol-1-yl)phenyl)-1-(3-phenyl-2-(4-(pyridin-2-yl)-1H-imidazol-2-yl)piperidin-1-yl)prop-2-en-1-one]: the Ki stood at 3270 nM.

Turning to `CS(=O)(=O)c1ccc(-c2c[nH]c(C3C(c4ccccc4)CCCN3C(=O)/C=C/c3cc(Cl)ccc3-n3cnnn3)n2)cc1` (stereo not drawn) [Example 1-29, (E)-3-(5-chloro-2-(1H-tetrazol-1-yl)phenyl)-1-(2-(4-(4-(methylsulfonyl)phenyl)-1H-imidazol-2-yl)-3-phenylpiperidin-1-yl)prop-2-en-1-one], the Ki was greater than 10000 nM.

On to `COC(=O)Nc1ccc(-c2c[nH]c([C@@H]3[C@H](CO[Si](C)(C)C(C)(C)C)CCCN3C(=O)/C=C/c3cc(Cl)ccc3-n3cnnn3)n2)cc1` [Example 1-66, methyl (4-(2-((2S,3R)-3-(((tert-butyldimethylsilyl)oxy)methyl)-1-((E)-3-(5-chloro-2-(1H-tetrazol-1-yl)phenyl)acryloyl)piperidin-2-yl)-1H-imidazol-4-yl)phenyl)carbamate], for which the Ki worked out at 3910 nM.

On to `O=C(/C=C/c1cc(Cl)ccc1-n1cnnn1)N1CCCC(c2ccccc2)C1c1nc(-c2ccncc2)c[nH]1` (stereo not drawn) [Example 1-42, (E)-3-(5-chloro-2-(1H-tetrazol-1-yl)phenyl)-1-(3-phenyl-2-(4-(pyridin-4-yl)-1H-imidazol-2-yl)piperidin-1-yl)prop-2-en-1-one], for which the Ki came out at 237 nM.

Regarding `COC(=O)Nc1ccc(-c2c[nH]c(C3C(c4ccccc4)CCCN3C(=O)/C=C/c3cc(Cl)ccc3-n3cnnn3)n2)cc1` (stereo not drawn) [Example 1-38, (E)-methyl (4-(2-(1-(3-(5-chloro-2-(1H-tetrazol-1-yl)phenyl)acryloyl)-3-phenylpiperidin-2-yl)-1H-imidazol-4-yl)phenyl)carbamate], the inhibitory constant (Ki) came to 90 nM.

Take `COC(=O)c1ccc(-c2c[nH]c(C3C(c4ccccc4)CCCN3C(=O)/C=C/c3cc(Cl)ccc3-n3cnnn3)n2)cc1` (stereo not drawn) [Example 1-40, (E)-methyl 4-(2-(1-(3-(5-chloro-2-(1H-tetrazol-1-yl)phenyl)acryloyl)-3-phenylpiperidin-2-yl)-1H-imidazol-4-yl)benzoate]: the Ki is greater than 10000 nM.
